Test results: the Deep4Chem optical property database

Test: photoluminescence quantum yield (fraction); solvent given as SMILES

SMILES: CCCCCCC(CCCCCC)N1C(=O)c2cccc3c(-c4cc(OC)c(OC)c(OC)c4)ccc(c23)C1=O
- photoluminescence quantum yield (in CCCCCC): 0.41
- photoluminescence quantum yield (in CCCCCCCCCCCCCC): 0.51
- photoluminescence quantum yield (in CCCCCCCCCCCO): 0.26
- photoluminescence quantum yield (in CCCCO): 0.022
- photoluminescence quantum yield (in CN(C)C=O): 0.0065
- photoluminescence quantum yield (in Cc1ccccc1): 0.71
- photoluminescence quantum yield (in ClC(Cl)Cl): 0.65

SMILES: FC(F)(F)c1ccc(-n2c(-c3ccc(N(c4ccc(-c5ccc(N(c6ccc(-c7nc8c9ccccc9c9ccccc9c8n7-c7ccc(C(F)(F)F)cc7)cc6)c6ccc(-c7nc8c9ccccc9c9ccccc9c8n7-c7ccc(C(F)(F)F)cc7)cc6)cc5)cc4)c4ccc(-c5nc6c7ccccc7c7ccccc7c6n5-c5ccc(C(F)(F)F)cc5)cc4)cc3)nc3c4ccccc4c4ccccc4c32)cc1
- photoluminescence quantum yield (in ClCCl): 0.383

SMILES: COC(=O)C(Cc1ccc2oc(-c3ccc(N(C)C)cc3)nc2c1)NC(=O)OC(C)(C)C (centres undefined)
- photoluminescence quantum yield (in C1CCCCC1): 1
- photoluminescence quantum yield (in C1CCOC1): 0.88
- photoluminescence quantum yield (in C1COCCO1): 1
- photoluminescence quantum yield (in CC1CCCO1): 1
- photoluminescence quantum yield (in CC1COC(=O)O1): 1
- photoluminescence quantum yield (in CC#N): 0.95
- photoluminescence quantum yield (in CC(C)=O): 1
- photoluminescence quantum yield (in CC(C)CC(C)(C)C): 0.95
- photoluminescence quantum yield (in CC(C)CO): 1
- photoluminescence quantum yield (in CC(C)O): 1
- photoluminescence quantum yield (in CC(C)OC(C)C): 1
- photoluminescence quantum yield (in CC(O)CO): 0.99
- photoluminescence quantum yield (in CCC(C)CC): 0.92
- photoluminescence quantum yield (in CCCCC): 0.95
- photoluminescence quantum yield (in CCCCCC): 0.93
- photoluminescence quantum yield (in CCCCCCCCC): 1
- photoluminescence quantum yield (in CCCCCCCCCC): 0.93
- photoluminescence quantum yield (in CCCCCCCO): 1
- photoluminescence quantum yield (in CCCCCCO): 1
- photoluminescence quantum yield (in CCCCCO): 1
- photoluminescence quantum yield (in CCCCO): 0.99
- photoluminescence quantum yield (in CCO): 0.98
- photoluminescence quantum yield (in CCOC(C)=O): 1
- photoluminescence quantum yield (in CCOCC): 0.99
- photoluminescence quantum yield (in CN(C)C=O): 0.92
- photoluminescence quantum yield (in CO): 0.81
- photoluminescence quantum yield (in COCCOC): 0.7
- photoluminescence quantum yield (in CS(C)=O): 1
- photoluminescence quantum yield (in Cc1ccccc1): 0.9
- photoluminescence quantum yield (in Cc1ccccc1C): 0.99
- photoluminescence quantum yield (in ClC(Cl)Cl): 0.68
- photoluminescence quantum yield (in ClCCl): 1
- photoluminescence quantum yield (in NC=O): 0.71
- photoluminescence quantum yield (in OC1CCCCC1): 0.91
- photoluminescence quantum yield (in OCCO): 0.76
- photoluminescence quantum yield (in c1ccccc1): 0.97

SMILES: CCCCc1cc(-c2cccc(COC)c2)oc1-c1cccc(-c2cc(CCCC)c(-c3cccc(-c4cc(CCCC)c(-c5cccc(-c6oc(-c7cccc(-c8oc(-c9cccc(-c%10oc(-c%11cccc(COC)c%11)cc%10CCCC)c9)cc8CCCC)c7)cc6CCCC)c5)o4)c3)o2)c1
- photoluminescence quantum yield (in ClC(Cl)Cl): 0.54

SMILES: CCCCCCCCC1(CCCCCCCC)c2cc3c(cc2-c2sc(-c4ccc(/C=C5\SC(=S)N(CC)C5=O)c5nsnc45)cc21)C(CCCCCCCC)(CCCCCCCC)c1cc(-c2ccc(/C=C4\SC(=S)N(CC)C4=O)c4nsnc24)sc1-3
- photoluminescence quantum yield (in C1CCOC1): 0.029
- photoluminescence quantum yield (in ClC(Cl)Cl): 0.04

SMILES: COc1ccc(C2=C3C(C)=CC(C)=[N+]3[B-](F)(F)n3c(/C=C/c4ccc(N(C)C)cc4)cc(C)c32)cc1
- photoluminescence quantum yield (in C1CCCCC1): 0.97
- photoluminescence quantum yield (in C1CCOC1): 0.56
- photoluminescence quantum yield (in C1COCCO1): 0.77
- photoluminescence quantum yield (in CC1CCCCC1): 0.86
- photoluminescence quantum yield (in CC#N): 0.09
- photoluminescence quantum yield (in CC(C)=O): 0.27
- photoluminescence quantum yield (in CC(C)OC(C)C): 0.87
- photoluminescence quantum yield (in CCC#N): 0.19
- photoluminescence quantum yield (in CCCC#N): 0.27
- photoluminescence quantum yield (in CCCCO): 0.59
- photoluminescence quantum yield (in CCCCOCCCC): 0.91
- photoluminescence quantum yield (in CCOC(C)=O): 0.59
- photoluminescence quantum yield (in CCOCC): 0.93
- photoluminescence quantum yield (in CN(C)C=O): 0.08
- photoluminescence quantum yield (in CO): 0.16
- photoluminescence quantum yield (in CS(C)=O): 0.056
- photoluminescence quantum yield (in Cc1ccccc1): 0.85
- photoluminescence quantum yield (in ClC(Cl)Cl): 0.82

SMILES: CCC1=C(C)C2=C(c3ccc(-c4c5ccccc5c(-c5ccccc5)c5ccccc45)cc3)c3c(C)c(CC)c(C)n3[B-](F)(F)[N+]2=C1C
- photoluminescence quantum yield (in CC#N): 0.696
- photoluminescence quantum yield (in CCCCCC): 0.756
- photoluminescence quantum yield (in CCO): 0.841
- photoluminescence quantum yield (in CN(C)C=O): 0.232
- photoluminescence quantum yield (in Cc1ccccc1): 0.781
- photoluminescence quantum yield (in ClCCl): 0.744

SMILES: C(=C\c1nc2ccccc2[nH]1)/c1ccc(-c2nc3c4cccnc4c4ncccc4c3[nH]2)cc1
- photoluminescence quantum yield (in C1CCOC1): 0.11
- photoluminescence quantum yield (in CC#N): 0.15
- photoluminescence quantum yield (in CO): 0.09
- photoluminescence quantum yield (in ClCCl): 0.07

SMILES: CCCN1c2ccccc2Sc2cc(/C=C\c3cc(=O)oc4cc(C)ccc34)ccc21
- photoluminescence quantum yield (in ClC(Cl)Cl): 0.27

SMILES: CC(C)[Si](C#Cc1ccc(C#Cc2c3cc4ccccc4cc3c(C#C[Si](C(C)C)(C(C)C)C(C)C)c3cc4ccccc4cc23)cc1)(C(C)C)C(C)C
- photoluminescence quantum yield (in ClCCl): 0.12

SMILES: CCC1=C(C2=C(C3=C(CC)S(=O)(=O)c4cc(-c5ccc(C(C)=O)s5)ccc43)C(F)(F)C(F)(F)C2(F)F)c2ccc(-c3ccc(C(C)=O)s3)cc2S1(=O)=O
- photoluminescence quantum yield (in C1COCCO1): 0

SMILES: CCOC(=O)c1ccc(C2CC(c3cccc4ccccc34)=NN2c2ccc(C#N)cc2)cc1 (centres undefined)
- photoluminescence quantum yield (in ClCCl): 0.258

SMILES: COc1nnc(Cl)nn1
- photoluminescence quantum yield (in ClCCl): 0.38
- photoluminescence quantum yield (in OCC(F)(F)F): 0.26

SMILES: CC1=[N+]2C(=C(c3ccc(Br)cc3)c3ccc(C)n3[B-]2(F)F)C=C1c1cc2n(c1)[B-](F)(F)[N+]1=CC=CC1=C2c1c(C)cc(C)cc1C
- photoluminescence quantum yield (in C1CCCCC1): 0.85
- photoluminescence quantum yield (in CCOC(C)=O): 0.21

SMILES: CC(C)(C)/C=C/C1=[N+]2C(=C(c3c4ccccc4cc4ccccc34)c3ccc(/C=C/C(C)(C)C)n3[B-]2(F)F)C=C1
- photoluminescence quantum yield (in ClC(Cl)Cl): 0.58

SMILES: Cc1nc2c(c[n+]1C)CN1C(=O)N([C@H]3O[C@@H](CO)[C@H](O)[C@@H]3O)C=CC1=N2
- photoluminescence quantum yield (in CC#N): 0.99
- photoluminescence quantum yield (in CC(C)=O): 0.94
- photoluminescence quantum yield (in CCCCO): 0.12
- photoluminescence quantum yield (in CCCO): 0.11
- photoluminescence quantum yield (in CCO): 0.14
- photoluminescence quantum yield (in CO): 0.14
- photoluminescence quantum yield (in O): 0.38
- photoluminescence quantum yield (in [2H]OC): 0.15
- photoluminescence quantum yield (in [2H]OCC): 0.14
- photoluminescence quantum yield (in [2H]O[2H]): 0.42

SMILES: N#Cc1coc2ccccc2c1=O
- photoluminescence quantum yield (in C1CCOC1): 0.035
- photoluminescence quantum yield (in C1COCCO1): 0.0009
- photoluminescence quantum yield (in CC#N): 0.0005
- photoluminescence quantum yield (in CC(C)O): 0.001
- photoluminescence quantum yield (in CCCCO): 0.003
- photoluminescence quantum yield (in CCCO): 0.001
- photoluminescence quantum yield (in CCOC(C)=O): 0.002
- photoluminescence quantum yield (in CN(C)C=O): 0.001
- photoluminescence quantum yield (in CO): 0.003
- photoluminescence quantum yield (in CS(C)=O): 0.003
- photoluminescence quantum yield (in ClC(Cl)Cl): 0.002
- photoluminescence quantum yield (in O): 0.001

SMILES: CCOC(=O)COc1ccc(/C=C/C2=[N+]3C(=Cc4c5ccccc5c(-c5[nH]c(C)cc5C)n4[B-]3(F)F)C(C)=C2)cc1
- photoluminescence quantum yield (in ClCCl): 0.75

SMILES: F[B-]1(F)n2cccc2C(c2ccccc2)=C2C=CC(c3cccc(OC4=[N+]5C(=C(c6ccccc6)c6cc(Br)c(-c7ccc[nH]7)n6[B-]5(F)F)C=C4Br)c3)=[N+]21
- photoluminescence quantum yield (in ClC(Cl)Cl): 0.18

SMILES: C[SiH]1c2ccccc2-c2cc3c(cc21)-c1ccccc1[SiH]3C (centres undefined)
- photoluminescence quantum yield (in ClCCl): 0.5

SMILES: CCOc1ccc2c(-c3nc(-c4ccccc4F)no3)cc(=O)oc2c1
- photoluminescence quantum yield (in CCO): 0.64
- photoluminescence quantum yield (in ClC(Cl)Cl): 0.36

SMILES: COc1cc(/C=C2/SC(=O)NC2=O)ccc1O
- photoluminescence quantum yield (in C1CCCCC1): 0.018
- photoluminescence quantum yield (in C1COCCO1): 0.017
- photoluminescence quantum yield (in CC#N): 0.01
- photoluminescence quantum yield (in CN(C)C=O): 0.023
- photoluminescence quantum yield (in CO): 0.012
- photoluminescence quantum yield (in O): 0.011
- photoluminescence quantum yield (in OCC(O)CO): 0.35
- photoluminescence quantum yield (in OCCO): 0.104

SMILES: CCOC(=O)c1ccccc1-c1c2ccc(=[N+](CC)CC)cc-2oc2cc(N(CC)CC)ccc12
- photoluminescence quantum yield (in CC#N): 0.39
- photoluminescence quantum yield (in CCO): 0.69
- photoluminescence quantum yield (in CN(C)C=O): 0.39
- photoluminescence quantum yield (in O): 0.34

SMILES: CCOC(=O)c1ccc2c(c1)[nH]c1c3ccc(C(=O)OCC)cc3sc21
- photoluminescence quantum yield (in CCCO): 0.45

SMILES: CCN(CC)c1ccc2cc(C#N)/c(=N\C(C)=O)oc2c1
- photoluminescence quantum yield (in CCO): 0.15
- photoluminescence quantum yield (in ClCCl): 0.8

SMILES: F[B-]1(F)n2c(nc3c4ccccc4c4ccccc4c32)-c2cccc[n+]21
- photoluminescence quantum yield (in CC#N): 0.08
- photoluminescence quantum yield (in CCCCCC): 0.95
- photoluminescence quantum yield (in CO): 0.14
- photoluminescence quantum yield (in ClC(Cl)Cl): 0.3
- photoluminescence quantum yield (in ClCCl): 0.32

SMILES: CC(C)(C)c1ccc(-c2cc(-c3ccc(-c4cc(-c5ccc(C(C)(C)C)cc5)c(C(=O)N5CCOCC5)s4)s3)sc2C(=O)N2CCOCC2)cc1
- photoluminescence quantum yield (in ClCCl): 0.26

SMILES: Cc1ccc2nc(-c3cccc4nc(C)[nH]c(=O)c34)oc2c1
- photoluminescence quantum yield (in CN(C)C=O): 0.076

SMILES: CC1=[N+]2C(=C(c3ccc(C=O)cc3)c3ccc(C)n3[B-]2(F)F)C=C1c1cc2n(c1)[B-](F)(F)[N+]1=CC=CC1=C2c1c(C)cc(C)cc1C
- photoluminescence quantum yield (in C1CCCCC1): 0.92
- photoluminescence quantum yield (in CCOC(C)=O): 0.2

SMILES: c1ccc(-c2nc(-c3ccccc3)nc(-c3ccc(-c4ccc5c(c4)C4(c6ccccc6-c6ccccc64)c4cc(-c6ccc(-c7nc(-c8ccccc8)nc(-c8ccccc8)n7)cc6)ccc4N5c4ccccc4)cc3)n2)cc1
- photoluminescence quantum yield (in c1cc(-c2cccc(-n3c4ccccc4c4ccccc43)c2)cc(-n2c3ccccc3c3ccccc32)c1): 0.94

SMILES: CCCCCCn1c2cc(C(=O)OCC)ccc2c2c1c1ccc(C(=O)OCC)cc1n2CCCCCC
- photoluminescence quantum yield (in CCCO): 0.6

SMILES: Cc1ccc2c(c1)c(C#N)c(C#N)c1cc(C)ccc12
- photoluminescence quantum yield (in ClC(Cl)Cl): 0.15

SMILES: COc1ccc2c(c1)CCC1=C(c3ccccc3)C3=Nc4c(-c5ccccc5)c5c(n4[B-](F)(F)[N+]3=C12)-c1ccc(OC)cc1CC5
- photoluminescence quantum yield (in ClC(Cl)Cl): 0.28

SMILES: Cc1cc2ccccc2cc1C
- photoluminescence quantum yield (in C1CCCCC1): 0.56

SMILES: COCCC1=Cc2nc1ccc1[nH]c(cc1CCOC)c1nc(c(N3C(=O)CCCC3=O)cc3[nH]c2cc3CCOC)C(CCOC)=C1
- photoluminescence quantum yield (in Cc1ccccc1): 0.36

SMILES: C(=C\c1ccc(-n2c3ccccc3c3ccccc32)cc1)/c1ccc(-c2ccc(/C=C/c3ccc(-n4c5ccccc5c5ccccc54)cc3)cc2)cc1
- photoluminescence quantum yield (in Cc1ccccc1): 0.89
- photoluminescence quantum yield (in c1ccc2c(c1)c1ccccc1n2-c1ccc(-c2ccc(-n3c4ccccc4c4ccccc43)cc2)cc1): 0.98

SMILES: COc1cc2cc(C#Cc3ccc(/C=C(\C#N)C(=O)O)cc3)c(=O)oc2cc1OC
- photoluminescence quantum yield (in CC#N): 0.05
